≈ marks a conversion by molar mass, not a printed value. Each block holds one compound with its values, some of them ahead of it.
Tests used:
[1] = Inhibition of soybean 5-LOX using arachidonic acid as substrate preincubated for 5 mins followed by substrate addition and measured after 5 mins by microplate spectrophotometric analysis; parameters: species or system Glycine max
[2] = biological target: T1, Prostaglandin G/H synthase 2 (Homo sapiens, UniProt P35354); assay: Inhibition of COX-2 (unknown origin) using arachidonic acid as substrate preincubated for 5 mins followed by substrate addition and measured after 20 mins by colorimetric assay
T1 sequence (P35354 whole entry): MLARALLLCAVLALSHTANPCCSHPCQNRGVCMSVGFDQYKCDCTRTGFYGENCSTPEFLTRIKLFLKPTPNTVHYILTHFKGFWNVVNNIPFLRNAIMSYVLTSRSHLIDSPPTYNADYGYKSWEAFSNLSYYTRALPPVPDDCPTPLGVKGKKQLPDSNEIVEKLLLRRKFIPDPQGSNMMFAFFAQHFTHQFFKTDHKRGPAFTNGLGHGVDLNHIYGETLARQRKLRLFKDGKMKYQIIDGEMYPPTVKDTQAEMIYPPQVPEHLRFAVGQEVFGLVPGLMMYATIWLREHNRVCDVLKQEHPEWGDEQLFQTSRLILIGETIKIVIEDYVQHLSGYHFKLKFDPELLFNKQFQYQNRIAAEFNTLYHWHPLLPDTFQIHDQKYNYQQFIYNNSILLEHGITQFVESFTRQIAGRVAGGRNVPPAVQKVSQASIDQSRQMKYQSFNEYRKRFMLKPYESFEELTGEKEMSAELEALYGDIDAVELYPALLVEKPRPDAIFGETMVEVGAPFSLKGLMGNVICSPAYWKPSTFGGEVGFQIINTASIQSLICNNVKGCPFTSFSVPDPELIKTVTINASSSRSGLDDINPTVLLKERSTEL

DU-145 = assay: Antiproliferative activity against human DU-145 cells assessed as reduction in cell viability incubated for 48 hrs by MTT assay; type: functional, cell-based; conditions: DU-145, 48 h
[3] = biological target: T1, Prostaglandin G/H synthase 2; assay: Inhibition of COX-2 (unknown origin)
[4] = biological target: T1, Prostaglandin G/H synthase 2; assay: Inhibition of COX-2 (unknown origin) using arachidonic acid as substrate preincubated for 5 mins followed by substrate addition by colorimetric assay
[5] = biological target: T2, Polyunsaturated fatty acid 5-lipoxygenase (Homo sapiens, UniProt P09917); assay: Inhibition of 5-LOX (unknown origin) by colorimetric assay
T2 sequence (P09917 whole entry): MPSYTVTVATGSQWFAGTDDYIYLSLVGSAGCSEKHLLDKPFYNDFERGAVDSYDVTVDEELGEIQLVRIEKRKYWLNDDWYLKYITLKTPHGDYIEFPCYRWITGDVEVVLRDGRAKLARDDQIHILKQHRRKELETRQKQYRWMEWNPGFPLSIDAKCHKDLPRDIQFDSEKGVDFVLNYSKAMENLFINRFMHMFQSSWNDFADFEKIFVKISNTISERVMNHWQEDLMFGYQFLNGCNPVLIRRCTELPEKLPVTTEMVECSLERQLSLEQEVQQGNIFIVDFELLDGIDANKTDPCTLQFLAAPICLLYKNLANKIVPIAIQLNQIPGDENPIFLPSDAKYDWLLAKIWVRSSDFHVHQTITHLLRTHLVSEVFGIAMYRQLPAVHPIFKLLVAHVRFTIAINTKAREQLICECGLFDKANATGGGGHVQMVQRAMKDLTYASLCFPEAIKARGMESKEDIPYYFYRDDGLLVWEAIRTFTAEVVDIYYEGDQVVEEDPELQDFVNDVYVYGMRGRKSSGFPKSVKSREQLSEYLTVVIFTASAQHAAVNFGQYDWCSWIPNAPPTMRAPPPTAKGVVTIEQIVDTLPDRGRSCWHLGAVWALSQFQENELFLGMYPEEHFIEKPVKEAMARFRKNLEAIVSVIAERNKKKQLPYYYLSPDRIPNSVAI

Rattus norvegicus [6] = assay: Antiinflammatory activity in Wistar rat carragenan-induced paw edema model assessed as reduction in edema thickness at 50 mg/kg, po and measured after 2 hrs; type: functional; parameters: scale not given: the % may be the effect or the level left
[7] = biological target: T2, Polyunsaturated fatty acid 5-lipoxygenase; assay: Inhibition of recombinant human 5-LOX using arachidonic acid as substrate incubated for 10 mins by spectrophotometric analysis
[8] = biological target: T1, Prostaglandin G/H synthase 2; assay: Inhibition of recombinant human COX-2 using arachidonic acid as substrate preincubated for 10 mins followed by substrate addition and measured after 2 mins by Ellman's reagent based ELISA
Rattus norvegicus [9] = assay: Antiinflammatory activity in carragenan-induced paw edema rat model assessed as reduction in edema thickness at 28 microg/kg, ip and measured after 4 hrs by digital Vernier caliper analysis; type: functional; parameters: scale not given: the % may be the effect or the level left; conditions: dose 28 µg/kg
[10] = biological target: T1, Prostaglandin G/H synthase 2; assay: Inhibition of recombinant human COX-2 by enzyme immune assay
[11] = Selectivity index, ratio IC50 for inhibition of ovine COX-1 to IC50 for inhibition of recombinant human COX-2
[12] = biological target: T2, Polyunsaturated fatty acid 5-lipoxygenase; assay: Inhibition of 5-LOX (unknown origin) by enzyme immune assay
[13] = biological target: T2, Polyunsaturated fatty acid 5-lipoxygenase; assay: Inhibition of 5-LOX (unknown origin)
[14] = biological target: T1, Prostaglandin G/H synthase 2; assay: Inhibition of recombinant human COX-2 using arachidonic acid as substrate preincubated for 10 mins followed by substrate addition and measured after 2 mins by ELISA
[15] = biological target: T2, Polyunsaturated fatty acid 5-lipoxygenase; assay: Inhibition of 5-LOX (unknown origin) using linoleic acid as substrate preincubated for 5 mins followed by substrate addition by spectrophotometric assay
Homo sapiens = species: Homo sapiens; assay: Selectivity index, ratio of IC50 for inhibition of human COX1 to IC50 for inhibition of human COX2
Rattus norvegicus [16] = assay: Antiinflammatory activity in Wistar rat assessed as reduction in carragenan-induced paw edema at 10 mg/kg, po for 7 days followed by carrageenan stimulation and measured upto 6 hrs by vernier caliper method; type: functional; parameters: scale not given: the % may be the effect or the level left; conditions: time 7 day
[17] = biological target: T3, Prostaglandin G/H synthase 1 (Homo sapiens, UniProt P23219); assay: Inhibition of human COX-1 using arachidonic acid as substrate preincubated for 10 mins followed by substrate addition and measured after 2 mins by ELISA
T3 sequence (P23219 whole entry): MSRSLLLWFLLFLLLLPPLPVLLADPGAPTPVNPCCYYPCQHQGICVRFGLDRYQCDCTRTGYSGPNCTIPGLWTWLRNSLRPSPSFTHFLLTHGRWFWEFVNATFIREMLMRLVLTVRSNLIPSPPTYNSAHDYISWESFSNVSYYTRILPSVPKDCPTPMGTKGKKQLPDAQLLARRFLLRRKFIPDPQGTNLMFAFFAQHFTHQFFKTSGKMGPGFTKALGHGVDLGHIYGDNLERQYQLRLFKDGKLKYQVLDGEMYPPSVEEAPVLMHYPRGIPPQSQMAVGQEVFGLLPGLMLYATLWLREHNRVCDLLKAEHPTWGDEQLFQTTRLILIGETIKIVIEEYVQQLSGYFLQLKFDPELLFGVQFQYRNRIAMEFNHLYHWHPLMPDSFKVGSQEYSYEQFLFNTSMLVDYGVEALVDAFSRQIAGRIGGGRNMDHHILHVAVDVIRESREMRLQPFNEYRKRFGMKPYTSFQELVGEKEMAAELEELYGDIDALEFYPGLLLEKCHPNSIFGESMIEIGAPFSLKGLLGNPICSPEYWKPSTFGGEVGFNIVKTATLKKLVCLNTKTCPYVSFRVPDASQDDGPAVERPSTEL

[18] = Antioxidant activity assessed as DPPH radical scavenging activity by spectrophotometric analysis; type: functional
[19] = biological target: T1, Prostaglandin G/H synthase 2; assay: Inhibition of COX-2 (unknown origin) by 2,7-dichlorofluorescein dye based spectrophotometric method
[20] = biological target: T2, Polyunsaturated fatty acid 5-lipoxygenase; assay: Inhibition of 5-LOX (unknown origin) by spectrophotometric method
[21] = biological target: T2, Polyunsaturated fatty acid 5-lipoxygenase; assay: Inhibition of 5-LOX (unknown origin) by fluorometric analysis
[22] = biological target: T3, Prostaglandin G/H synthase 1; assay: Inhibition of recombinant human COX-1 using arachidonic acid as substrate by ELISA
[23] = biological target: T1, Prostaglandin G/H synthase 2; assay: Inhibition of recombinant human COX-2 using arachidonic acid as substrate by ELISA
[24] = biological target: T1, Prostaglandin G/H synthase 2; assay: Inhibition of recombinant human COX-2 using arachidonic acid as substrate preincubated for 5 mins followed by substrate addition and measured after 20 mins by ELISA
[25] = biological target: T2, Polyunsaturated fatty acid 5-lipoxygenase; assay: Inhibition of recombinant human 5-LOX using arachidonic acid as substrate preincubated for 10 mins followed by substrate addition and measured after 10 mins by ELISA

Structure (SMILES): COc1cc(C(=O)O)cc(O)c1O
IC50 [3]: 23.4 µM

Structure (SMILES): N=C1/C(=N\Nc2ccc(S(N)(=O)=O)cc2)C(N)=NN1c1ccccc1C(=O)O
IC50 [4]: 1.12 µM
IC50 [5]: 2.73 µM
Activity (Rattus norvegicus [6]): 15%

Structure (SMILES): CC1=CCCC2C1(C)CCC(C)C2(C)CCC1=CC(=O)OC1O (configuration not stated)
IC50 [7]: 14.4 µM
IC50 [8]: 10.3 µM

Structure (SMILES): C=C1C(O)CCC2C1(C)CCC(C)C2(C)CCC1=CC(=O)OC1O (configuration not stated)
IC50 [7]: 16.5 µM
IC50 [8]: 12.8 µM

Structure (SMILES): CC[C@H](CO)[C@@](C)(O)C/C=C/C(C)(C)OC(=O)C[C@]1(C)C=CC[C@@H](C)[C@@]12C=CC(C)(CC)O2 (some centres not stated)
IC50 [18]: 540 µg/mL (≈ 1170 µM)
IC50 [19]: 1400 µM
IC50 [20]: 1620 µM

Structure (SMILES): COc1cc(/C=C/c2ccc(O)cc2)cc(OC)c1 [PTEROSTILBENE]
IC50 [24]: 5.99 µM
IC50 [25]: 1.63 µM

Structure (SMILES): CCCCC(=O)OCC[C@@H]1CC=C[C@@H]2[C@H]1C(=O)O[C@@]2(C)CO
IC50 [19]: 2380 µM
IC50 [20]: 2580 µM

Structure (SMILES): Cc1ccc(-c2ncc(Cl)cc2-c2ccc(S(C)(=O)=O)cc2)cn1
Ratio IC50 (Homo sapiens): 91.3

Further lines, with some results ahead:

IC50 [1]: 7.73 µM
IC50 [2]: 0.12 µM
IC50 (DU-145): 8.17 µM
Structure (SMILES): CCc1ccc(-c2ccc(-n3cc(CNC(=O)C(=O)c4c[nH]c5ccccc45)nn3)cc2)cc1

IC50 [4]: 0.72 µM
IC50 [5]: 0.52 µM
Structure (SMILES): CC1=NN(c2ccccc2C(=O)O)C(=O)/C1=N/Nc1ccc(S(N)(=O)=O)cc1
Activity (Rattus norvegicus [6]): 72.72%

IC50 [7]: 30.5 µM
IC50 [8]: 12.7 µM
Structure (SMILES): CC1=CCCC2C1(C)CCC(C)C2(C)CC/C(=C\C(=O)O)CO (configuration not stated)

IC50 [1]: 7.46 µM
IC50 [2]: 0.12 µM
IC50 (DU-145): 18.5 µM
Structure (SMILES): CC(=O)OC[C@@H]1O[C@@H](n2cc(CNC(=O)C(=O)c3cn(S(=O)(=O)c4ccc(C)cc4)c4ccccc34)nn2)[C@H](OC(C)=O)[C@@H](OC(C)=O)[C@H]1OC(C)=O

IC50 [10]: 0.1 µM
Ratio IC50 [11]: 135
IC50 [12]: 10.5 µM
Structure (SMILES): CCCCNC(=O)c1cc(NCc2cc(O)ccc2O)ccc1O
Activity (Rattus norvegicus [9]): 40.05%

IC50 [13]: 54 µM
Structure (SMILES): O=C1N/C(=N\c2nc(-c3ccccc3)cs2)S/C1=C\c1ccc(Cl)cc1

IC50 [4]: 0.66 µM
IC50 [5]: 0.57 µM
Structure (SMILES): CC1=NN(c2ccc(S(N)(=O)=O)cc2)C(=O)/C1=N/Nc1ccc(S(N)(=O)=O)cc1

IC50 [14]: 0.08 µM
IC50 [15]: 0.36 µM
Ratio IC50 (Homo sapiens): 90
Structure (SMILES): O=C(/N=C1\SC=C(c2ccc([N+](=O)[O-])cc2)C1c1ccccc1)c1cccc2ccccc12 (configuration not stated)

IC50 [3]: 2.1 µM
IC50 [13]: 1.37 µM
Structure (SMILES): COc1ccc(-c2nc(-c3cn(C)c4ccccc34)c(C(=O)c3ccc(C#N)cc3)s2)cc1OC

IC50 [14]: 0.07 µM
IC50 [17]: 8.06 µM
IC50 [15]: 0.29 µM
Ratio IC50 (Homo sapiens): 115
Structure (SMILES): O=C(c1sc(N(c2ccccc2)c2ccccc2)nc1-c1ccc([N+](=O)[O-])cc1)c1cccc2ccccc12
Activity (Rattus norvegicus [16]): 63%

IC50 [4]: 0.92 µM
IC50 [5]: 2.78 µM
Structure (SMILES): N=C1/C(=N\Nc2ccc(S(N)(=O)=O)cc2)C(N)=NN1c1ccc(S(N)(=O)=O)cc1

IC50 [21]: 2.3 µM
IC50 [22]: 0.668 µM
IC50 [23]: 0.047 µM
Structure (SMILES): COc1cc(/C=c2\c(=O)[nH]n3c(=O)c4ccccc4nc23)cc(OC)c1OC

IC50 [18]: 590 µg/mL (≈ 1560 µM)
IC50 [19]: 1850 µM
IC50 [20]: 2030 µM
Structure (SMILES): CCC[C@H](O)CCOC(=O)CC[C@]1(C)C=CC[C@@H](C)[C@@]12C=CC(C)(CC)O2 (some centres not stated)
